From patent US10709724B2, “Methods of treating mitochondrial dysfunction” (Ecole Polytechnique Federale de Lausanne (EPFL), priority 2011, dated 2020)

Tests used:
[1] = tested on: C. elegans; assay: Quantitative RT-PCR in worms; format: in vivo
Procedure: mRNA and mtDNA Analysis. Total RNA was prepared using TRIzol (Invitrogen) according to the manufacturer's instructions. RNA was treated with DNase, and 2 μg of RNA was used for reverse transcription (RT). cDNA was purified on QIAquick PCR cleanup columns (Qiagen, Valencia, Calif., USA). 50× diluted cDNA was used for RT-quantitative PCR (RT-VCR) VCR) reactions (Bai et al., 2007). The RT-qPCR reactions were performed using the Light-Cycler system (Roche Applied Science) and a qPCR Supermix (Qiagen) with the primers for mice summarized in Table 1 and 4, and with the primers for worms summarized on Table 7. mtDNA quantification was performed as described (Lagouge et al., 2006) with the primers indicated in Table 2 and 5.

[2] = tested on: SIRT3; assay: NR in SIRT3−/− mouse embryonic fibroblasts; format: cell-based; conditions: 0.5 mM, 24 hrs
Procedure: (§1) Cell Culture, Transfection, Adenoviral Infection and Mitochondrial Characterization. HEK293T, MEF and C2C12 cells were cultured in DMEM (4.5 g/l glucose, 10% FCS). PARP-1^+/+ and PARP-1^−/− MEFs were prepared as described in (Menissier-de Murcia et al., 1997). SIRT1 and MEFs were kindly provided by Fred Alt (Chea et al., 2005). SIRT3 MER were established according to standard techniques from conditional SERT3^−/− mice. […] Mitochondrial charge determination was performed as described (Bai et al., 2001) and DNA strand breaks were quantified by TUNEL assays according to the manufacturer's instructions (Millipore).
(§2) Immunoprecipitation, SDS-PAGE, Western Blotting. […] Reactions were developed by enhanced chemiluminescence (Amersham, Little Chalfont, UK), PGC-1α, FOXO1 and Ndufa9 acetylation levels were analyzed by immunoprecipitation from cellular or nuclear lysates of tissues with anti-PGC-1α (Millipore), anti-FOXO1 (Cell Signaling, Danvers, Mass., USA) and anti-Ndufa9 (Abcam) antibody followed by Western blot using an acetyl-lysine antibody (Cell Signaling) that was normalized to total PGC-1a/FOXO1/Ndufa9 levels (Lagouge et al., 2006; Rodgers et al., 2005). […] All blots were quantified by densitometry using ImageJ software. […]

[3] = tested on: SIRT1 MEF cells; assay: PJ34 in SIRT1−/− MEFs; format: cell-based, mice
Procedure: as §1, §2

## NC(=O)c1ccc[n+]([C@@H]2O[C@H](CO)[C@@H](O)[C@H]2O)c1 [NR, nicotinamide riboside]
[1]; day 3 of adulthood
  expression of genes of mitochondrial oxidative metabolism (cts-1, cox-4): trend for increased cts-1 expression
[1]; in vivo
  daf-16 expression: without affecting daf-16 mRNA levels
  sod-3 expression: significantly higher sod-3 expression
[2]
  NAD+ levels in SIRT3−/− MEFs: increased to similar levels as in SIRT3^+/+ MEFs
  acetylation status of SOD2 in SIRT3−/− MEFs: unable to decrease the acetylation status of SOD2

## CN(C)CC(=O)Nc1ccc2[nH]c(=O)c3ccccc3c2c1 [PJ34]
[3]; SIRT1 MEF cells
  mitochondrial gene expression: largely blunted
[3]; SIRT1−/− MEFs
  PGC-1α acetylation levels: totally unable to decrease PGC-1α acetylation levels
